According to publication PMC9572083, “Hybrids of 1,4-Quinone with Quinoline Derivatives: Synthesis, Biological Activity, and Molecular Docking with DT-Diaphorase (NQO1)” (Molecules, 2022):

What was measured:
[1] = target: T1, NQO1 (DT-diaphorase, EC 1.6.5.5, human recombinant) (Homo sapiens, UniProt P15559); test: NQO1 substrate NADPH recycling enzymatic assay; format: biochemical; conditions: compound 10 µmol/L, pH 7.4, 25 °C, absorbance at 340 nm
T1 construct: purchased Sigma-Aldrich
Description: The interaction between 1,4-quinone moiety of hybrid and NQO1 protein leads to reduction in quinone to hydroquinone and production of reactive oxide form (ROS). According to a literature method, the ability of hybrids 11–14 and streptonigrin (ST) to be a substrate for NQO1 was examined by measuring the oxidation of NADPH to NADP^+ [29, 32].
Compounds 11–14 (10 µmol/L) were tested as NQO1 substrates using the NADPH recycling assay according to the literature method. The recombinant NQO1 (DT-diaphorase, EC 1.6.5.5, human recombinant, Sigma-Aldrich) was used, and the oxidation of NADPH to NADP^+ was measured at the absorption wavelength of 340 nm on the BioTek 800TS microplate reader (BioKom, Janki, Poland). Compounds were dissolved in dimethyl sulfoxide (2 µL) and added to the 96-well plate. The NQO1 protein (1.4 µg/mL) in 50 mmol/L potassium phosphate buffer (pH = 7.4) was added to each well (198 µL) (Nunc Thermo Fisher Scientific, Waltham, MA, USA). Once the 96-well plate was filled with the assay solutions, except the NADPH solution, it was placed into the instrument and left to sit for 5 min before starting the measurements. The enzymatic reaction was initiated by automatically dispensing the NADPH solution into the wells, and data were recorded at 10 s intervals for 5 min at 25 °C. The linear part of the absorbance vs. time graphs (the first 20 s to 1 min) was fitted, and the slopes were calculated. NADPH oxidation rates were compared with reactions lacking the tested compound. Initial velocities were calculated, and data were expressed as µmol NADPH/µmol NQO1/min. All reactions were carried out at least in triplicate.

Colo-829 cells = test: Cytotoxic activity, WST-1 assay, melanoma Colo-829; format: cell-based, human; conditions: for SI (IC50 HFF-1/IC50 cancer line) Colo-829: HFF-1 vs Colo-829; for IC50: Homo sapiens, melanoma Colo-829, 72 h, WST-1
Excerpt: (§1) Anticancer activity of compounds 11–14 was designated against following human cancer cell lines: melanoma (Colo-829), ovarian cancer (SK-OV-3), breast cancer (MDA-MB-231, T47D and MCF-7), lung cancer (A549) and normal fibroblasts (HFF-1). As a reference substance, the doxorubicin was used. The results are presented in Table 1 as IC50, where IC50 means the concentration of tested compounds (µM) causing the growth inhibition of 50% for given tumor cells. The negative value (Neg.) means that the IC50 is higher than 30 µM. Selectivity index (SI) as the ratio of the IC50 for normal fibroblast (HFF-1) to IC50 of the corresponding cell line, is presented in Table S2.
(§2) Compounds 7–14 and doxorubicin were tested for cytotoxic activity in vitro against panel of human cancer cell lines: melanoma (Colo-829, ATCC, Rockville, MD, USA), ovarian cancer (SK-OV-3, ATCC, Rockville, MD, USA), breast cancer (T47D, MCF-7, and MDA-MB-231, ATCC, Rockville, MD, USA) and lung cancer (A549, ATCC, Rockville, MD, USA). The cultured cells were kept at 37 °C and 5% CO2. The cells were seeded (5 × 10^4 cells/well/[…] DMEM supplemented with 10% FCS and streptomycin/penicillin) using 96-well plates (Nunc Thermo Fisher Scientific, Waltham, MA, USA). The tested compounds 7–14 with the concentration of 1–100 µg/mL DMSO were inducted with the cancer cells for 72 h. The WST-1-formazan (proliferation reagent WST-1 assay, Roche Diagnostics, Mannheim, Germany) was detected using a microplate reader at 450 nm. Results were expressed as a mean value of at least three independent experiments performed in triplicate.

SK-OV-3 cells = test: Cytotoxic activity, WST-1 assay, ovarian cancer SK-OV-3; format: cell-based, human; conditions: for SI (IC50 HFF-1/IC50 cancer line) SK-OV-3: HFF-1 vs SK-OV-3; for IC50: Homo sapiens, ovarian cancer SK-OV-3, 72 h, WST-1
Excerpt: as §1, §2

MDA-MB-231 cells = test: Cytotoxic activity, WST-1 assay, breast cancer MDA-MB-231; format: cell-based, human; conditions: for SI (IC50 HFF-1/IC50 cancer line) MDA-MB-231: HFF-1 vs MDA-MB-231; for IC50: Homo sapiens, breast cancer MDA-MB-231, 72 h, WST-1
Excerpt: as §1, §2

T47D cells = test: Cytotoxic activity, WST-1 assay, breast cancer T47D; format: cell-based, human; conditions: for SI (IC50 HFF-1/IC50 cancer line) T47D: HFF-1 vs T47D; for IC50: Homo sapiens, breast cancer T47D, 72 h, WST-1
Excerpt: as §1, §2

MCF-7 cells = test: Cytotoxic activity, WST-1 assay, breast cancer MCF-7; format: cell-based, human; conditions: for SI (IC50 HFF-1/IC50 cancer line) MCF-7: HFF-1 vs MCF-7; for IC50: Homo sapiens, MCF7, breast cancer MCF-7, 72 h, WST-1
Excerpt: as §1, §2

A549 cells = test: Cytotoxic activity, WST-1 assay, lung cancer A549; format: cell-based, human; conditions: for SI (IC50 HFF-1/IC50 cancer line) A549: HFF-1 vs A549; for IC50: Homo sapiens, lung cancer A549, 72 h, WST-1
Excerpt: as §1, §2

HFF-1 cells = test: Cytotoxic activity, WST-1 assay, normal fibroblasts HFF-1; format: cell-based; conditions: Homo sapiens, normal fibroblasts HFF-1, 72 h
Excerpt: as §1, §2

T1 sequence (P15559 whole entry): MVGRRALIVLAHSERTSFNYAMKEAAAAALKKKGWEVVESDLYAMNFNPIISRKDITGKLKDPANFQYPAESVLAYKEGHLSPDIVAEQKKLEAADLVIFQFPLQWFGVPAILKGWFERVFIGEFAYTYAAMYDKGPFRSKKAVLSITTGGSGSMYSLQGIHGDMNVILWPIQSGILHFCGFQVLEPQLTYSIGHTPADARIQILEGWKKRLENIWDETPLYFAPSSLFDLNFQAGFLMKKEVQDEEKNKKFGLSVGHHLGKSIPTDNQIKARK

Compound	NQO1 activity (enzymatic conversion rate) [1] [µmol NADPH/µmol NQO1/min]	SI (IC50 HFF-1/IC50 cancer line) Colo-829 (Colo-829 cells)	IC50 (Colo-829 cells) [µM]	SI (IC50 HFF-1/IC50 cancer line) SK-OV-3 (SK-OV-3 cells)	IC50 (SK-OV-3 cells) [µM]	SI (IC50 HFF-1/IC50 cancer line) MDA-MB-231 (MDA-MB-231 cells)	IC50 (MDA-MB-231 cells) [µM]	SI (IC50 HFF-1/IC50 cancer line) T47D (T47D cells)	IC50 (T47D cells) [µM]	SI (IC50 HFF-1/IC50 cancer line) MCF-7 (MCF-7 cells)	IC50 (MCF-7 cells) [µM]	SI (IC50 HFF-1/IC50 cancer line) A549 (A549 cells)	IC50 (A549 cells) [µM]	IC50 (HFF-1 cells) [µM]	melting point [°C]
O=Cc1ccc2cccc(OC3=C(Cl)C(=O)c4ccncc4C3=O)c2n1 [Compound 13c, 8-[(6-chloro-5,8-dioxo-5,8-dihydroisoquinolin-7-yl)oxy]quinoline-2-carbaldehyde]	318 ± 19	38.97	0.34 ± 0.28	41.41	0.32 ± 0.01	17.67	0.75 ± 0.09	25.48	0.52 ± 0.08	14.89	0.89 ± 0.03	10.04	1.32 ± 0.32	13.2 ± 0.85	166 to 168
Cc1ccc2c(n1)C(=O)C(Oc1cccc3cccnc13)=C(Cl)C2=O [Compound 12a, 6-chloro-2-methyl-7-(quinolin-8-yloxy)quinoline-5,8-dione]	1505 ± 54	11.41	1.52 ± 0.35	346.80	0.05 ± 0.02	8.80	1.97 ± 0.15	10.91	1.59 ± 0.15	8.30	2.09 ± 0.02	20.40	0.85 ± 0.04	17.3 ± 0.89	115 to 117
O=C1C(Cl)=C(Oc2cccc3ccc(Cl)nc23)C(=O)c2ccccc21 [Compound 14d, 2-chloro-3-[(2-chloroquinolin-8-yl)oxy]naphthalene-1,4-dione]	1001 ± 43	0.80	18 ± 2.01	1.01	14.1 ± 0.52	6.99	2.05 ± 0.35		> 30	1.23	11.7 ± 1.34	1.76	8.13 ± 1.02	14.3 ± 1.23	101 to 103
Cc1ccc2c(n1)C(=O)C(Oc1cccc3ccc(Cl)nc13)=C(Cl)C2=O [Compound 12d, 6-chloro-2-methyl-7-[(2-chloroquinolin-8-yl)oxy]quinoline-5,8-dione]	890 ± 21	0.78	13.1 ± 0.49	0.67	15.4 ± 0.48	0.66	15.6 ± 0.79	0.64	16.2 ± 0.98	0.59	17.4 ± 0.82	7.04	1.46 ± 0.06	10.3 ± 1.65	120 to 122
O=C1C(Cl)=C(Oc2cccc3ccc(Cl)nc23)C(=O)c2ncccc21 [Compound 11d, 6-chloro-7-[(2-chloroquinolin-8-yl)oxy]quinoline-5,8-dione]	800 ± 64	9.48	1.45 ± 0.24	8.81	1.56 ± 0.11	6.77	2.03 ± 0.05	6.54	2.1 ± 0.11	6.51	2.11 ± 0.09	8.04	1.71 ± 0.03	13.7 ± 1.27	123 to 125
Cc1ccc2c(n1)C(=O)C(Oc1cccc3ccc(C=O)nc13)=C(Cl)C2=O [Compound 12c, 8-[(6-chloro-2-methyl-5,8-dioxo-5,8-dihydroquinolin-7-yl)oxy]quinoline-2-carbaldehyde]	470 ± 22	1.23	14.6 ± 0.51	8.28	2.16 ± 0.19	0.85	21.12 ± 0.11	0.77	23.3 ± 1.12	0.94	19.1 ± 0.95	5.70	3.14 ± 0.43	17.9 ± 1.37	184 to 186
O=Cc1ccc2cccc(OC3=C(Cl)C(=O)c4cccnc4C3=O)c2n1 [Compound 11c, 8-[(6-chloro-5,8-dioxo-5,8-dihydroquinolin-7-yl)oxy]quinoline-2-carbaldehyde]	1100 ± 35	0.90	11.7 ± 1.36	5.91	1.78 ± 0.31	0.73	14.3 ± 2.01	0.47	22.2 ± 0.66	0.57	18.3 ± 1.23	7.26	1.45 ± 0.13	10.5 ± 0.87	168 to 170
